Entries after “also recorded” stand apart in the source; their conditions may differ.
Legend:
EC 35218, EC 43888 = assay: Checkerboard assay, chelator with antibiotic (FIC); assay type: cell-based, E. coli
From the text: Drug interactions were initially evaluated with the “checkerboard” microdilution design, which provided a matrix of all drug combinations assayed in terms of fractions of the previously determined MIC. The checkerboard microdilution design is described in R. J. Tallarida, “Drug Synergism: Its Detection and Applications,” Journal of Pharmacology and Experimental Therapeutics, 865-872 (2001); and in R. L. White, et al., (1996), supra. FIGS. 39A and 39B show the wellplates having different concentrations of iron chelator and antibiotic, as labeled along the x-axis and y-axis.
The checkerboard assay was used to asses other combinations of iron chelators and antibiotics. The fractional inhibitory concentration index (FIC), which was calculated as follows: FIC=(MIC A in combination/MIC A)+(MIC B in combination/MIC B). Interaction was defined as synergistic if the FIC was <1.0, preferably <0.5, no interaction if the FIC was >1.0 and <4.0, and antagonistic if the FIC was >4.0. […]
The assay was run against the multi-drug resistant bacterial species AB 19606, AB 17978, EC 35218, and EC 43888.

[1] = test system: Acinetobacter baumannii strain 5711 (AB5711); assay: Growth (OD600) of AB5711 in low iron media with chelators, with or without FeCl3; assay type: cell-based; details: for bacterial growth (OD600 growth curves): AB5711, low iron media, 100 μM or 200 μM chelator added after 4 hr, 24 hr
Method: Acinetobacter baumannii strain 5711 (AB5711) was grown overnight in LB media and sub-cultured into low iron media. The tested iron chelators were deferoxamine (DFO), deferiprone (DFP), 2,2-dipyridyl, and VK28. The iron chelators were added after 4 hr of growth.
Bacterial growth was estimated by absorption at OD600 every 4 hr for 24 hr. Optical density (OD) at 600 nm (OD600) as measured by a spectrophotometer is a widely used technique known by one skilled in the art to estimate the total number of bacterial cells present in a broth culture (CFU/ml). The exact amount of OD produced by a culture will depend on the concentration of cells present, the species and strain of microbe present, the growth conditions used, and the wavelength of the light being transmitted. Thus, the relationship between OD and cell concentrations will depend on the specific strain and growth conditions studied. For example, the OD600 of 1 for E. coli is about 1×10^9 CFU/ml.
This example provides further evidence that the removal of iron is responsible for bacterial growth inhibition. A. baumannii isolate 5711 was grown in low iron M9 media supplemented with 0 μM, 10 μM, or 100 μM FeCl3 with and without the addition of 200 μM VK28 following 4 hr of growth. Growth was estimated by absorbance at 600 nm every 4 hr for 24 hr.
This example provides further evidence that the removal of iron is responsible for bacterial growth inhibition. A. baumannii isolate 5711 was grown in low iron M9 media supplemented with 0 μM, 10 μM, 100 μM, or 1000 μM FeCl3 with and without the addition of 50 μg/ml of VK28 following 4 hr of growth. Growth was estimated by absorbance at 600 nm after 20 hours.

AB5075 = assay: Time-kill assay in M9 minimal media; assay type: cell-based, A. baumannii; details: 24 hours
Method: Reductions in colony forming units (CFU)/mL were determined over time (time-kill assay) after exposure to VK28 and deferiprone (DFP), the two iron chelators that performed best in MIC assays when compared to controls. To better represent the iron content found in the human body, MIC and time-kill assays were also determined in minimal media and tissue culture media. Time-Kill assays were performed as previously described in G. P. Neupane et al., “In vitro time-kill activities of ciprofloxacin alone and in combination with the iron chelator deferasirox against Vibrio vulnificus,” European Journal of Clinical Microbiology and Infectious Diseases, 407-410 (2010); and R. L. White, et al., “Comparison of Three Different In Vitro Methods of Detecting synergy: Time-Kill, Checkerboard, and E test,” Journal of Antimicrobial Agents and Chemotherapy, 1914-1918 (1996). Initial inocula, for example 1×10^6 CFU/mL or 1×10^7 CFU/mL were challenged with iron chelator with and/or without an antibiotic. Cells were allowed to grow in CAMHB at 37° C. for 24 hours. Time-kill results were analyzed by determining the change in log 10 numbers of CFU/ml at 0, 6, and 24 h, compared to counts at 0 h. Antimicrobials were considered bactericidal at the lowest concentration that reduced the size of the original inoculum by >3 log 10 CFU/ml (99.9%) over each of the time periods and were considered bacteriostatic if the inoculum's size was reduced by 0 to <3 log 10 CFU/ml.
The untreated sample (♦) had greater than 1×10^9 CFU/mL after 9 hours that was sustained at 24 hours.

[2] = test system: Tetracycline-resistant A. baumannii; assay: Growth (OD600) with VK28, tetracycline or both; assay type: cell-based
From the text: Growth was estimated by absorbance at 600 nm at 24 hr. (y-axis).

[3] = test system: MR Staphylococcus aureus (MRSA); assay: Growth (OD600) with VK28 in M9 media with magnesium and calcium; assay type: cell-based; details: M9 with 2 mM MgSO4 and 1.35 mM CaCl2; 24 hours
Method: In this example, strains of MR Staphylococcus aureus (MRSA), Acinetobacter baumannii (Acinetobacter), Escherichia coli (E. coli), and Pseudomonas aeruginosa (Pseudomonas) were grown in M9 media in the presence of 2 mM MgSO4 and 1.35 mM CaCl2 for 24 hours in the presence or absence of 0 μg/ml, 50 μg/ml, 100 μg/ml, or 200 μg/ml of VK28. The OD600 was measured at 24 hour and the results are shown in the bar graph of FIG. 21.

AB5711 = assay: Effect of VK28 on the activity of antibiotics (OD600); assay type: cell-based, A. baumannii; details: 50 μM VK28; 30 antibiotics
Method: In some aspects of the present invention, one or more iron chelators (for example Compound 4, VK28, or its analogs or derivatives, or Apo6619) may be used in a composition or method for treating a bacterial infection with one or more antibiotics. […] Methods and compositions comprising one or more iron chelators with one or more of each of the foregoing antibiotics are hereby disclosed.
In this example, culture of AB5711 was grown overnight in LB media at 37° C. and diluted 1:100 into Media A. Cells were allowed to grow for 4 hours at 37 in 96-well plates and were then treated with antibiotics with or without 50 μM VK28. Cells were then allowed to shake for an additional 20 hours, and OD600 measurements were taken.

[4] = rat; systemically/intravenously; cited from earlier work
[5] = EC 35218, in combination with Cefotaxine
[6] = EC 35218, in combination with Colisitin
[7] = EC 35218, in combination with Doxycycline
[8] = EC 35218, in combination with Rifampin
[9] = EC 43888, in combination with Cefotaxine
[10] = EC 43888, in combination with Colisitin
[11] = EC 43888, in combination with Doxycycline
[12] = EC 43888, in combination with Rifampin

| Structure (SMILES) | FIC (EC 35218, EC 43888; [5]) | FIC (EC 35218, EC 43888; [6]) | FIC (EC 35218, EC 43888; [7]) | FIC (EC 35218, EC 43888; [8]) | FIC (EC 35218, EC 43888; [9]) | FIC (EC 35218, EC 43888; [10]) | FIC (EC 35218, EC 43888; [11]) | FIC (EC 35218, EC 43888; [12]) | bacterial growth (OD600 growth curves) [1] | time-kill course of CFU/ml (AB5075; 0.5×MIC) | time-kill course of CFU/ml (AB5075; 1×MIC) | time-kill course of CFU/ml (AB5075; 2×MIC) | growth with FeCl3 added (absorbance at 600 nm after 20 hours) ([1]; 50 μg/ml of VK28 with 10, 100 or 1000 μM FeCl3, low iron M9 media) | growth with free iron added back ([1]; 200 μM VK28 with 10 μM or 100 μM FeCl3, low iron M9 media) | reduction of bacteria (absorbance at 600 nm at 24 hr) ([2]; 400 μM Vk28 in combination with 16 ug/mL tetracycline) | reduction of bacteria (absorbance at 600 nm at 24 hr) ([2]; single agent: 400 μM Vk28 or 16 ug/mL tetracycline, low-iron M9) | inhibition of growth (OD600) [3] | inhibition of the activity of antibiotics by VK28 (AB5711) | dose showing toxicity [4] [mg/kg] |
| --- | --- | --- | --- | --- | --- | --- | --- | --- | --- | --- | --- | --- | --- | --- | --- | --- | --- | --- | --- |
| CNC(=O)c1c(O)c(=O)cc(C)n1C1CC1 [Apo6619, 1-cyclopropyl-3-hydroxy-6-methyl-4-oxo-1,4-dihydro-pyridine-2-carboxylic acid methylamide] | 1.25 | 1.25 | 1.25 | 1.75 | 1.25 | 1.25 | 1.25 | 0.75 |  |  |  |  |  |  |  |  |  |  |  |
| Cc1c(O)c(=O)ccn1C [ApoL1, 3-hydroxy-1,2-dimethyl-4(1H)-pyridone] | 1.25 | 1.25 | 1.25 | 0.75 | 1.25 | 1.25 | 1.25 | 0.75 | somewhat reduced bacterial growth | slight reduction in CFU/ml levels over the 24 hour period | slight reduction in CFU/ml levels over the 24 hour period | sustained level of CFU/ml obtained over the 24 hour period |  |  |  |  |  |  |  |
| OCCN1CCN(Cc2ccc(O)c3ncccc23)CC1 [VK28, 5-(4-(2-hydroxyethyl)piperazin-1-ylmethyl)-8-hydroxyquinoline] |  |  |  |  |  |  |  |  | reduced bacterial growth to a significant extent | slight inhibitory effect on the CFU/ml over the 24 hours | slight inhibitory effect on the CFU/ml over the 24 hours | slight inhibitory effect on the CFU/ml over the 24 hours | inhibition of growth can be rescued by the addition of FeCl3 | bacteria are rescued from the VK28 growth inhibition | the reduction in bacteria was greater than the added reductions from separate administration of tetracycline and VK28 | significant reduction in bacteria | inhibition of growth of a number of strains of bacteria is not reduced in the presence of magnesium and calcium | only inhibited the activity of one antibiotic, namely thiamphenicol; also recorded: not shown to inhibit the activity of the antibiotics with the exception of Thiaphenicol | 70 |
